# Test results from ChEMBL document CHEMBL1132025, “Macrocyclic hexapeptide analogues of the thrombin receptor (PAR-1) activation motif SFLLRN” (Bioorg Med Chem Lett, 1999).
# Numbered stars: 1 amine (or outer) side, 2 acyl side, 3 side chain; on linkers, the order of the positions; unused ones are H or OH. Bridge positions count the residues as written; N and C are the ends. Square brackets hold non-standard residues; d marks the D form. Peptide text beside a SMILES is read from it. Phe(3-F) = N[C@@H](Cc1cccc(F)c1)C(=O)O; Phe(4-F) = N[C@@H](Cc1ccc(F)cc1)C(=O)O; X1 = O=C(CCCN[*:2])[*:1]; GABA = NCCCC(=O)O; βAla = NCCC(=O)O
# Key:
# Homo sapiens [1] = species: Homo sapiens; assay: (§1) Agonist activity to activate human platelet aggregation (gel-filtered platelets) at a concentration of 50 uM; type: functional
# [2] = molecular target: Proteinase-activated receptor 1 (Homo sapiens) (UniProt P25116); assay: In vitro antagonist activity to inhibit human platelet aggregation (gel-filtered platelets) induced by human thrombin at a concentration of 50 uM
# Homo sapiens [3] = species: Homo sapiens; assay: as §1; type: functional, organism-based
# Homo sapiens [4] = species: Homo sapiens; assay: Agonist activity to activate human platelet aggregation (gel-filtered platelets) at a concentration of 100 uM; Not active; type: functional
inhibition [2] [%],EC50 (Homo sapiens [3]) [µM],EC50 (Homo sapiens [4]),SMILES,Aggregation (Homo sapiens [1]) [%]
5,,,CC(C)C[C@@H]1NC(=O)[C@@H](NC(=O)[C@@H](CCc2ccccc2)NC(=O)[C@@H](N)CO)CCCCNC(=O)C[C@@H](C(N)=O)NC(=O)[C@H](CCCN=C(N)N)NC1=O,16
2,,,CC(C)C[C@@H]1NC(=O)[C@@H](NC(=O)[C@@H](CCc2ccccc2)NC(=O)CN)CCCCNC(=O)C[C@@H](C(N)=O)NC(=O)[C@H](CCCN=C(N)N)NC1=O,5
1,,,CC(C)C[C@@H]1NC(=O)[C@@H](NC(=O)[C@@H](CCc2ccccc2)NC(=O)CCN)CCCCNC(=O)C[C@@H](C(N)=O)NC(=O)[C@H](CCCN=C(N)N)NC1=O,7
2,,,CC(C)C[C@@H]1NC(=O)[C@@H](NC(=O)[C@@H](CCc2ccccc2)NC(=O)CCCN)CCCCNC(=O)C[C@@H](C(N)=O)NC(=O)[C@H](CCCN=C(N)N)NC1=O,8
,0.8,,CC(C)C[C@H](NC(=O)[C@H](CC(C)C)NC(=O)[C@H](Cc1ccccc1)NC(=O)[C@@H](N)CO)C(=O)N[C@@H](CCCN=C(N)N)C(=O)N[C@@H](CC(N)=O)C(N)=O,
15,37,,CC(C)C[C@@H]1NC(=O)[C@@H](NC(=O)[C@@H](CCc2ccccc2)NC(=O)CCCN)CCCCNC(=O)C[C@@H](C(N)=O)NC(=O)[C@H](Cc2ccccc2)NC1=O,
2,,Not Active,CC(C)C[C@@H]1NC(=O)[C@@H](NC(=O)[C@@H](CCc2ccccc2)NC(=O)[C@@H](N)CO)CCCCNC(=O)C[C@@H](C(N)=O)NC(=O)[C@H](Cc2ccccc2)NC1=O,
44,30,,CC(C)C[C@@H]1NC(=O)[C@@](C)(NC(=O)[C@@H](Cc2ccccc2)NC(=O)CN)CCCCNC(=O)CCCNC(=O)C[C@@H](C(N)=O)NC(=O)[C@H](CCCN=C(N)N)NC1=O,
16,43,,CC(C)C[C@@H]1NC(=O)[C@@H](NC(=O)[C@@H](CCc2ccccc2)NC(=O)CCN)CCCCNC(=O)C[C@@H](C(N)=O)NC(=O)[C@H](Cc2ccccc2)NC1=O,
11,,Not Active,CC(C)C[C@@H]1NC(=O)[C@@H](NC(=O)[C@@H](Cc2ccccc2)NC(=O)CCN)CCCCNC(=O)C[C@@H](C(N)=O)NC(=O)[C@H](Cc2ccccc2)NC1=O,
1,,Not Active,CC(C)C[C@@H]1NC(=O)[C@@H](NC(=O)[C@@H](CCc2ccccc2)NC(=O)CN)CCCCNC(=O)C[C@@H](C(N)=O)NC(=O)[C@H](Cc2ccccc2)NC1=O,
2,66,,CC(C)C[C@@H]1NC(=O)[C@@H](NC(=O)[C@H](Cc2ccccc2)NC(=O)[C@H](C)N)CCCCNC(=O)C[C@@H](C(N)=O)NC(=O)[C@H](CCCN=C(N)N)NC1=O (H-AFKLRD-NH2; lactam 3-6),
23,24,,CC(C)C[C@@H]1NC(=O)[C@@H](NC(=O)[C@H](Cc2ccccc2)NC(=O)CN)CCCCNC(=O)C[C@@H](C(N)=O)NC(=O)[C@H](Cc2ccccc2)NC1=O (H-GFKLFD-NH2; lactam 3-6),
9,,,CC(C)C[C@@H]1NC(=O)[C@@H](NC(=O)[C@H](Cc2ccccc2)NC(=O)CN)CCCCNC(=O)C[C@@H](C(N)=O)NC(=O)[C@H](CCCN=C(N)N)NC1=O (H-GFKLRD-NH2; lactam 3-6),15
11,63,,CC(C)C[C@@H]1NC(=O)[C@@H](NC(=O)[C@H](Cc2cccc(F)c2)NC(=O)CN)CCCCNC(=O)C[C@@H](C(N)=O)NC(=O)[C@H](Cc2ccccc2)NC1=O (H-G[Phe(3-F)]KLFD-NH2; lactam 3-6),
10,,,CC(C)C[C@@H]1NC(=O)[C@@H](NC(=O)[C@H](Cc2cccc(F)c2)NC(=O)CN)CCCCNC(=O)C[C@@H](C(N)=O)NC(=O)[C@H](CCCN=C(N)N)NC1=O (H-G[Phe(3-F)]KLRD-NH2; lactam 3-6),6
14,60,,CC(C)C[C@@H]1NC(=O)[C@@H](NC(=O)[C@H](Cc2ccc(F)cc2)NC(=O)CN)CCCCNC(=O)C[C@@H](C(N)=O)NC(=O)[C@H](CCCN=C(N)N)NC1=O (H-G[Phe(4-F)]KLRD-NH2; lactam 3-6),
3,,,CC(C)C[C@@H]1NC(=O)[C@H](CC(C)C)NC(=O)[C@H](Cc2ccccc2)NC(=O)[C@@H](N)CCCCNC(=O)C[C@@H](C(N)=O)NC(=O)[C@H](CCCN=C(N)N)NC1=O (H-KFLLRD-NH2; lactam 1-6),6
52,,,CC(C)C[C@@H]1NC(=O)[C@H](CC(C)C)NC(=O)[C@H](Cc2ccccc2)NC(=O)[C@@H](N)CCCCNC(=O)CCCNC(=O)C[C@@H](C(N)=O)NC(=O)[C@H](CCCN=C(N)N)NC1=O (H-KFLLRD-NH2; linker 1-6 via X1),5
12,,Not Active,CC(C)C[C@@H]1NC(=O)[C@@H](NC(=O)[C@H](Cc2ccccc2)NC(=O)[C@@H](N)CO)CCCCNC(=O)C[C@@H](C(N)=O)NC(=O)[C@H](Cc2ccccc2)NC1=O (H-SFKLFD-NH2; lactam 3-6),
13,,,CC(C)C[C@@H]1NC(=O)[C@@H](NC(=O)[C@H](Cc2ccccc2)NC(=O)[C@@H](N)CO)CCCCNC(=O)C[C@@H](C(N)=O)NC(=O)[C@H](CCCN=C(N)N)NC1=O (H-SFKLRD-NH2; lactam 3-6),16
23,,Not Active,CC(C)C[C@@H]1NC(=O)[C@@H](NC(=O)[C@H](Cc2cccc(F)c2)NC(=O)[C@@H](N)CO)CCCCNC(=O)C[C@@H](C(N)=O)NC(=O)[C@H](Cc2ccccc2)NC1=O (H-S[Phe(3-F)]KLFD-NH2; lactam 3-6),
5,,,CC(C)C[C@@H]1NC(=O)[C@@H](NC(=O)[C@H](Cc2cccc(F)c2)NC(=O)[C@@H](N)CO)CCCCNC(=O)C[C@@H](C(N)=O)NC(=O)[C@H](CCCN=C(N)N)NC1=O (H-S[Phe(3-F)]KLRD-NH2; lactam 3-6),12
14,,Not Active,CC(C)C[C@@H]1NC(=O)[C@@H](NC(=O)[C@H](Cc2ccccc2)NC(=O)CCCN)CCCCNC(=O)C[C@@H](C(N)=O)NC(=O)[C@H](Cc2ccccc2)NC1=O (H-[GABA]FKLFD-NH2; lactam 3-6),
6,,,CC(C)C[C@@H]1NC(=O)[C@@H](NC(=O)[C@H](Cc2ccccc2)NC(=O)CCCN)CCCCNC(=O)C[C@@H](C(N)=O)NC(=O)[C@H](CCCN=C(N)N)NC1=O (H-[GABA]FKLRD-NH2; lactam 3-6),6
27,,Not Active,CC(C)C[C@@H]1NC(=O)[C@@H](NC(=O)[C@H](Cc2cccc(F)c2)NC(=O)CCCN)CCCCNC(=O)C[C@@H](C(N)=O)NC(=O)[C@H](Cc2ccccc2)NC1=O (H-[GABA][Phe(3-F)]KLFD-NH2; lactam 3-6),
2,,,CC(C)C[C@@H]1NC(=O)[C@@H](NC(=O)[C@H](Cc2cccc(F)c2)NC(=O)CCCN)CCCCNC(=O)C[C@@H](C(N)=O)NC(=O)[C@H](CCCN=C(N)N)NC1=O (H-[GABA][Phe(3-F)]KLRD-NH2; lactam 3-6),6
3,,,CC(C)C[C@@H]1NC(=O)[C@@H](NC(=O)[C@H](Cc2ccccc2)NC(=O)CCN)CCCCNC(=O)C[C@@H](C(N)=O)NC(=O)[C@H](CCCN=C(N)N)NC1=O (H-[βAla]FKLRD-NH2; lactam 3-6),7
24,,Not Active,CC(C)C[C@@H]1NC(=O)[C@@H](NC(=O)[C@H](Cc2cccc(F)c2)NC(=O)CCN)CCCCNC(=O)C[C@@H](C(N)=O)NC(=O)[C@H](Cc2ccccc2)NC1=O (H-[βAla][Phe(3-F)]KLFD-NH2; lactam 3-6),
3,,,CC(C)C[C@@H]1NC(=O)[C@@H](NC(=O)[C@H](Cc2cccc(F)c2)NC(=O)CCN)CCCCNC(=O)C[C@@H](C(N)=O)NC(=O)[C@H](CCCN=C(N)N)NC1=O (H-[βAla][Phe(3-F)]KLRD-NH2; lactam 3-6),7
